{
  "source": "paper PMC13249053",
  "about": "“Mechanism of auranofin toxicity: Inhibition of tetrahydrobiopterin metabolism” (Toxicology and applied pharmacology, 2025)",
  "key": {"[1]": {"tested_on": "catecholamine and monoamine production in PC12 cells", "assay": "Catecholamine and monoamine production in PC12 cells (HPLC, electrochemical detection)", "type": "cell-based, rat", "conditions": "auranofin 0.04–2.5 μM", "procedure": "Catecholamine and monoamine production in PC12 cells were assayed as previously described ([Yang et al., 2015]). Briefly, cells grown in 10-cm culture dishes were treated in the absence or presence of auranofin (0.04–2.5 μM) in 10 ml of growth medium without FBS. After 24 h, the cells were removed from the plates, washed with phosphate-buffered saline, and centrifuged (1500 g, 10 min). Cell pellets (~8 × 10^6 cells) were resuspended in 1 ml of 0.1 N perchloric acid containing 200 μM EDTA and 350 μM sodium metabisulfite and sonicated on ice. Ly-sates were centrifuged (20,000 g, 10 min) and clear supernatants filtered using 0.22-μm filters. Extracts were then analyzed for neurotransmitters and their metabolites using a Waters 2695 high-performance liquid chromatography system (Waters Corp., Milford, MA) fitted with a cation exchange column (MD-150 3.2 × […] column; ESA Biosciences, Inc., Chelmsford, MA) using an isocratic mobile phase (MD-TM mobile phase; ESA Biosciences Inc.) containing 2.2 mM NaCl pumped at constant flow rate of 0.5 ml/min. Compounds were quantified by electrochemical detection using a glassy carbon working electrode (2 mm in diameter) with an in situ silver reference electrode (flow cell, 2 mm GC WE, ISAAC; Waters Corp.) ([Yochum et al., 2014]).\nFig. 9. […] Cells were analyzed for BH2 and BH4 as described in the Materials and Methods. […]"}, "[2]": {"target": "T1, SPR (Homo sapiens, UniProt P35270)", "T1 sequence (P35270 whole entry)": "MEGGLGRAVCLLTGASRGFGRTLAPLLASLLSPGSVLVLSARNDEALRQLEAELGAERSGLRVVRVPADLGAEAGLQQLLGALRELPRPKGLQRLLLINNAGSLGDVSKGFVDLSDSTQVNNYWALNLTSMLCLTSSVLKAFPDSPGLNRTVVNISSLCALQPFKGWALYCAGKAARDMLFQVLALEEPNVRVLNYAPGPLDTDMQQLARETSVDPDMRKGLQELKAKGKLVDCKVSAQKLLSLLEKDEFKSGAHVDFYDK", "assay": "Chemical (menadione) redox cycling by recombinant SPR, superoxide anion formation", "type": "biochemical", "set-up": "made in house", "conditions": "acetylated cytochrome c reduction at 550 nm, pH 7.8, read-out: IC50, inhibition of chemical redox cycling (superoxide anion production) by recombinant SPR", "procedure": "Sepiapterin reductase activity was assayed by measuring decreases in sepiapterin absorbance at 420 nm as described by Kato ([Kato, 1971]) with some modifications. Briefly, standard reaction mixes contained 100 mM potassium phosphate buffer, pH 7.0, 100 μM NADPH, 50 μM sepiapterin and 1 μg of enzyme protein in a final volume of 0.2 ml. Changes in absorbance of sepiapterin were monitored using a Spectramax M5 microplate reader (Molecular Devices, Sunnyvale, CA). […] Chemical redox cycling by SPR was assayed by measuring the formation of superoxide anion in the presence of menadione as previously described ([Yang et al., 2013]). […] Superoxide anion was measured spectrophotometrically by the reduction of acetylated cytochrome c at 550 nm. DHFR activity was measured as previously described ([Whitsett et al., 2013]) with some modifications. […] Enzyme activity was monitored by decreases in absorbance of NADPH at 340 nm using a microplate reader. […]\nFig. 5. […] SPR was measured in enzyme assays by decreases in sepiapterin absorbance at 420 nm as described in the Materials and Methods. DHFR activity in enzyme assays was measured by decreases in absorbance of NADPH at 340 nm. […] Redox cycling was measured spectrophotometrically by the reduction of acetylated cytochrome c at 550 nm during the formation of superoxide anion in enzyme assays in the presence of 100 μM menadione."}, "[3]": {"target": "T1, SPR", "assay": "Cellular SPR activity: BH2 formation from sepiapterin in the presence of methotrexate, human cell lines", "type": "cell-based", "set-up": "endogenous in cells; host or cells: HaCaT, Jurkat, BeWo, SKNMC, CX-1"}, "[4]": {"target": "T2, SPR (Mus musculus, UniProt Q64105)", "T2 construct": "endogenous in cells; host or cells: RAW264.7", "T2 sequence (Q64105 whole entry)": "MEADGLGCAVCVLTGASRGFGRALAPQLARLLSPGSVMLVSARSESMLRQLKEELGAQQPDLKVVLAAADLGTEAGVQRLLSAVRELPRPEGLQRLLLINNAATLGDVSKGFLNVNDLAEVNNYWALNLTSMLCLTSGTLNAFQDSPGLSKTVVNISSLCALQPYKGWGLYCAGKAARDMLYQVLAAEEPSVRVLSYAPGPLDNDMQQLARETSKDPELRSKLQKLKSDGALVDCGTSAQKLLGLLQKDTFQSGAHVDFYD", "assay": "Cellular SPR activity: BH2 formation from sepiapterin in the presence of methotrexate, RAW264.7 cells", "type": "cell-based", "conditions": "RAW264.7 (mouse macrophage); with methotrexate", "procedure": "(§1) The growth medium was then removed and the cells incubated with growth medium containing 100 μM sepiapterin. […] BH2 and BH4 were then analyzed on a Jasco high-performance liquid chromatography system (Easton, MD) fitted with a Maxsil-10 C18 column (250 × 4 mm; Phenomenex, Torrance, CA). […] Cell viability following drug treatments was greater than 95 %."}, "[5]": {"tested_on": "BH4 formation in HaCaT cells", "assay": "BH4 formation from sepiapterin in intact HaCaT cells (HPLC)", "type": "cell-based, human", "conditions": "intact HaCaT cells; auranofin 2 h, then 100 μM sepiapterin 3 h; read-out: IC50, inhibition of BH4 formation in intact HaCaT cells", "procedure": "as §1\nFig. 3. Effects of auranofin on BH2 and BH4 production in intact HaCaT cells treated with sepiapterin. HaCaT cells (~1 × 10^6 cells/well in 6 well culture plates) were incubated with control medium or medium containing increasing concentrations of auranofin for 2 h followed by 100 μM sepiapterin. After an additional 3 h, BH2 and BH4 were extracted from the cells and analyzed by HPLC with fluorescence detection. Left panel: Chromatograms showing BH2 and BH4 content of control cells and cells treated with Auranofin.\nFig. 6. […] Cells were treated with control medium or medium containing MTX (1 μM, 2 h), an inhibitor of DHFR, followed by 200 μM sepiapterin (upper panel) or BH2 (lower panel). After an additional 3 h incubation, cells were rinsed with PBS; BH2 and BH4 were then extracted and analyzed by HPLC as described in the Materials and Methods."}},
  "note": "“Also recorded” adds a separate entry of the source.",
  "data": [
    {"smiles": "CC[PH](CC)(CC)[Au][S][C@@H]1O[C@H](COC(C)=O)[C@@H](OC(C)=O)[C@H](OC(C)=O)[C@H]1OC(C)=O", "note": "[auranofin, 2,3,4,6-tetra-O-acetyl-1-thio-β-D-glucopyranosato-S-triethyl phosphine gold]", "values": [
      {"measurement": "production of monoamines (serotonin, dopamine) and their metabolites (5HIAA, DOPAC, HVA)", "setting": "[1]", "value": "concentration-dependent inhibition; also recorded: significantly reduced"},
      {"measurement": "IC50", "setting": "[2]", "value": 0.6, "unit": "µM"},
      {"measurement": "IC50", "setting": "[3]; BeWo (human choriocarcinoma), with methotrexate, read-out: SPR IC50, BeWo cells", "value": "8.9 ± 0.64", "unit": "µM"},
      {"measurement": "IC50", "setting": "[3]; CX-1 (human colon adenocarcinoma), with methotrexate, read-out: SPR IC50, CX-1 cells", "value": "25.1 ± 1.03", "unit": "µM"},
      {"measurement": "IC50", "setting": "[3]; HaCaT (human keratinocytes), with MTX 1 μM, auranofin 2 h, then 200 μM sepiapterin 3 h, listed as Auranofin, read-out: SPR IC50, HaCaT cells", "value": 10.7, "unit": "µM"},
      {"measurement": "IC50", "setting": "[3]; HaCaT (human keratinocytes), with MTX 1 μM, auranofin 2 h, then 200 μM sepiapterin 3 h, read-out: SPR IC50, HaCaT cells", "value": "10.7 ± 0.9", "unit": "µM"},
      {"measurement": "time of pretreatment to maximum inhibition of cellular SPR", "setting": "[3]; HaCaT cells with methotrexate, 20 μM auranofin", "value": 2, "unit": "h"},
      {"measurement": "IC50", "setting": "[3]; Jurkat (human leukemia), with methotrexate, read-out: SPR IC50, Jurkat cells", "value": "7.2 ± 0.17", "unit": "µM"},
      {"measurement": "IC50", "setting": "[3]; SKNMC (human neuroblastoma), with methotrexate, read-out: SPR IC50, SKNMC cells", "value": "17.7 ± 1.54", "unit": "µM"},
      {"measurement": "IC50", "setting": "[4]", "value": "21.3 ± 1.58", "unit": "µM"},
      {"measurement": "IC50", "setting": "[5]", "value": 7.9, "unit": "µM"}
    ]}
  ]
}
